According to the supplement of paper PMC10307832:

Tests used:
Experiment in all cases: relative viability (nuclei count vs DMSO), 5 days (fraction); higher = more cells survive
SK-MES-1 = system: SK-MES-1
Method in brief: (§1)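 Five library-drug doses in √10 steps were combined with a fixed anchor-drug dose, or a single drug was given alone, by pin tool to lung cancer cell lines in 1536-well plates the day after seeding. Nuclei were stained and counted after 5 days. Relative viability is the nuclei count in treated wells over that in vehicle wells, taken as the median of duplicate plates.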

NCI-H647 = system: NCI-H647
Method in brief: as §1

NCI-H2009 = system: NCI-H2009
Method in brief: as §1

NCI-H1792 = system: NCI-H1792
Method in brief: as §1

NCI-H1648 = system: NCI-H1648
Method in brief: as §1

HCC-15 = system: HCC-15
Method in brief: as §1

LCLC-97TM1 = system: LCLC-97TM1
Method in brief: as §1

RERF-LC-KJ = system: RERF-LC-KJ
Method in brief: as §1

SW 1573 = system: SW 1573
Method in brief: as §1

NCI-H650 = system: NCI-H650
Method in brief: as §1

EPLC-272H = system: EPLC-272H
Method in brief: as §1

NCI-H1395 = system: NCI-H1395
Method in brief: as §1

HCC-827 = system: HCC-827
Method in brief: as §1

HCC-44 = system: HCC-44
Method in brief: as §1

NCI-H596 = system: NCI-H596
Method in brief: as §1

COR-L 105 = system: COR-L 105
Method in brief: as §1

NCI-H1993 = system: NCI-H1993
Method in brief: as §1

ABC-1 = system: ABC-1
Method in brief: as §1

NCI-H661 = system: NCI-H661
Method in brief: as §1

HCC-78 = system: HCC-78
Method in brief: as §1

NCI-H522 = system: NCI-H522
Method in brief: as §1

NCI-H358 = system: NCI-H358
Method in brief: as §1

HCC-366 = system: HCC-366
Method in brief: as §1

Structure (SMILES): Oc1nc(-c2ccc(C(F)(F)F)cc2)nc2c1CSCC2 [XAV939] + Nc1ncn([C@H]2C[C@H](O)[C@@H](CO)O2)c(=O)n1 [Decitabine] (partner 2 µM)
- relative viability (SK-MES-1; first compound 0.08 µM): 0.359
- relative viability (SK-MES-1; first compound 0.253 µM): 0.342
- relative viability (SK-MES-1; first compound 0.8 µM): 0.358
- relative viability (SK-MES-1; first compound 2.53 µM): 0.381
- relative viability (NCI-H647; first compound 0.08 µM): 0.393
- relative viability (NCI-H647; first compound 0.253 µM): 0.26
- relative viability (NCI-H647; first compound 0.8 µM): 0.283
- relative viability (NCI-H647; first compound 2.53 µM): 0.279
- relative viability (NCI-H2009; first compound 0.08 µM): 0.515
- relative viability (NCI-H2009; first compound 0.253 µM): 0.359
- relative viability (NCI-H2009; first compound 0.8 µM): 0.405
- relative viability (NCI-H2009; first compound 2.53 µM): 0.336
- relative viability (NCI-H1792; first compound 0.08 µM): 0.604
- relative viability (NCI-H1792; first compound 0.253 µM): 0.485
- relative viability (NCI-H1792; first compound 0.8 µM): 0.503
- relative viability (NCI-H1792; first compound 2.53 µM): 0.42
- relative viability (NCI-H1648; first compound 0.253 µM): 0.423
- relative viability (NCI-H1648; first compound 0.8 µM): 0.386
- relative viability (NCI-H1648; first compound 2.53 µM): 0.438
- relative viability (HCC-15; first compound 0.08 µM): 0.702
- relative viability (HCC-15; first compound 0.253 µM): 0.656
- relative viability (HCC-15; first compound 0.8 µM): 0.656
- relative viability (HCC-15; first compound 2.53 µM): 0.635
- relative viability (LCLC-97TM1; first compound 0.08 µM): 0.211
- relative viability (LCLC-97TM1; first compound 0.253 µM): 0.245
- relative viability (LCLC-97TM1; first compound 2.53 µM): 0.21
- relative viability (RERF-LC-KJ; first compound 0.08 µM): 0.717
- relative viability (RERF-LC-KJ; first compound 0.253 µM): 0.657
- relative viability (RERF-LC-KJ; first compound 0.8 µM): 0.583
- relative viability (RERF-LC-KJ; first compound 2.53 µM): 0.552
- relative viability (SW 1573; first compound 0.08 µM): 0.559
- relative viability (SW 1573; first compound 0.253 µM): 0.436
- relative viability (SW 1573; first compound 0.8 µM): 0.437
- relative viability (SW 1573; first compound 2.53 µM): 0.453
- relative viability (NCI-H650; first compound 0.08 µM): 0.286
- relative viability (NCI-H650; first compound 0.253 µM): 0.305
- relative viability (NCI-H650; first compound 0.8 µM): 0.33
- relative viability (NCI-H650; first compound 2.53 µM): 0.325
- relative viability (EPLC-272H; first compound 0.08 µM): 0.357
- relative viability (EPLC-272H; first compound 0.253 µM): 0.299
- relative viability (EPLC-272H; first compound 0.8 µM): 0.385
- relative viability (EPLC-272H; first compound 2.53 µM): 0.332
- relative viability (NCI-H1395; first compound 0.08 µM): 0.77
- relative viability (NCI-H1395; first compound 0.253 µM): 0.683
- relative viability (NCI-H1395; first compound 0.8 µM): 0.795
- relative viability (NCI-H1395; first compound 2.53 µM): 0.688
- relative viability (HCC-827; first compound 0.08 µM): 0.327
- relative viability (HCC-827; first compound 0.253 µM): 0.269
- relative viability (HCC-827; first compound 0.8 µM): 0.321
- relative viability (HCC-827; first compound 2.53 µM): 0.254
- relative viability (HCC-44; first compound 0.08 µM): 0.969
- relative viability (HCC-44; first compound 0.253 µM): 0.861
- relative viability (HCC-44; first compound 0.8 µM): 0.928
- relative viability (HCC-44; first compound 2.53 µM): 0.878
- relative viability (NCI-H596; first compound 0.08 µM): 1
- relative viability (NCI-H596; first compound 0.253 µM): 0.976
- relative viability (NCI-H596; first compound 0.8 µM): 1.03
- relative viability (NCI-H596; first compound 2.53 µM): 0.928
- relative viability (COR-L 105; first compound 0.08 µM): 0.719
- relative viability (COR-L 105; first compound 0.253 µM): 0.551
- relative viability (COR-L 105; first compound 0.8 µM): 0.587
- relative viability (COR-L 105; first compound 2.53 µM): 0.563
- relative viability (NCI-H1993; first compound 0.08 µM): 0.527
- relative viability (NCI-H1993; first compound 0.253 µM): 0.224
- relative viability (NCI-H1993; first compound 0.8 µM): 0.567
- relative viability (NCI-H1993; first compound 2.53 µM): 0.467
- relative viability (ABC-1; first compound 0.253 µM): 1.27
- relative viability (ABC-1; first compound 0.8 µM): 0.975
- relative viability (ABC-1; first compound 2.53 µM): 0.655
- relative viability (NCI-H661; first compound 0.08 µM): 0.542
- relative viability (NCI-H661; first compound 0.253 µM): 0.493
- relative viability (NCI-H661; first compound 0.8 µM): 0.544
- relative viability (NCI-H661; first compound 2.53 µM): 0.509
- relative viability (HCC-78; first compound 0.08 µM): 0.679
- relative viability (HCC-78; first compound 0.253 µM): 0.655
- relative viability (HCC-78; first compound 0.8 µM): 0.732
- relative viability (HCC-78; first compound 2.53 µM): 0.642
- relative viability (NCI-H522; first compound 0.08 µM): 0.629
- relative viability (NCI-H522; first compound 0.253 µM): 0.576
- relative viability (NCI-H522; first compound 0.8 µM): 0.723
- relative viability (NCI-H522; first compound 2.53 µM): 0.607
- relative viability (NCI-H358; first compound 0.08 µM): 0.219
- relative viability (NCI-H358; first compound 0.253 µM): 0.207
- relative viability (NCI-H358; first compound 0.8 µM): 0.235
- relative viability (NCI-H358; first compound 2.53 µM): 0.215
- relative viability (HCC-366; first compound 0.08 µM): 0.329
- relative viability (HCC-366; first compound 0.253 µM): 0.299
- relative viability (HCC-366; first compound 0.8 µM): 0.326
- relative viability (HCC-366; first compound 2.53 µM): 0.31
